According to the supplement of paper PMC10307832:

Assays:
Assay in all cases: relative viability (nuclei count vs DMSO), 5 days (fraction); higher = more cells survive
HCC-78 = system: HCC-78
In short: (§1)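 Lung cancer cell lines, seeded in 1536-well plates, were treated the following day by pin tool with a single drug or with five library-drug doses (not always all listed) in √10 steps on top of a fixed anchor-drug dose. Cells were fixed and nuclei stained in one step after 5 days, and nuclei were counted. Relative viability is the nuclei count for treated wells divided by that for vehicle wells, reported as medians of duplicate plates.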

NCI-H460 = system: NCI-H460
In short: as §1

NCI-H358 = system: NCI-H358
In short: as §1

NCI-H1792 = system: NCI-H1792
In short: as §1

NCI-H1944 = system: NCI-H1944
In short: as §1

LU99A = system: LU99A
In short: as §1

NCI-H1975 = system: NCI-H1975
In short: as §1

UMC-11 = system: UMC-11
In short: as §1

NCI-H1755 = system: NCI-H1755
In short: as §1

HOP-62 = system: HOP-62
In short: as §1

NCI-H2342 = system: NCI-H2342
In short: as §1

HCC-366 = system: HCC-366
In short: as §1

LCLC-97TM1 = system: LCLC-97TM1
In short: as §1

A-427 = system: A-427
In short: as §1

NCI-H1793 = system: NCI-H1793
In short: as §1

NCI-H2170 = system: NCI-H2170
In short: as §1

NCI-H1915 = system: NCI-H1915
In short: as §1

SW 900 = system: SW 900
In short: as §1

LXF-289 = system: LXF-289
In short: as §1

COR-L 105 = system: COR-L 105
In short: as §1

LC-2-ad = system: LC-2-ad
In short: as §1

SK-LU-1 = system: SK-LU-1
In short: as §1

EPLC-272H = system: EPLC-272H
In short: as §1

NCI-H2085 = system: NCI-H2085
In short: as §1

## Clc1ccc(Nc2nnc(Cc3ccncc3)c3ccccc23)cc1 [Vatalanib] + Nc1nc2[nH]cc(CCc3ccc(C(=O)N[C@@H](CCC(=O)O)C(=O)O)cc3)c2c(=O)[nH]1 [Pemetrexed] (partner 0.2 µM)
HCC-78; first compound 0.04 µM
  relative viability: 0.924
HCC-78; first compound 0.1265 µM
  relative viability: 0.981
HCC-78; first compound 0.4 µM
  relative viability: 0.881
HCC-78; first compound 1.265 µM
  relative viability: 0.947
HCC-78; first compound 4 µM
  relative viability: 0.906
NCI-H460; first compound 0.04 µM
  relative viability: 0.0651
NCI-H460; first compound 0.1265 µM
  relative viability: 0.0511
NCI-H460; first compound 0.4 µM
  relative viability: 0.0612
NCI-H460; first compound 1.265 µM
  relative viability: 0.0684
NCI-H460; first compound 4 µM
  relative viability: 0.0605
NCI-H358; first compound 0.04 µM
  relative viability: 0.158
NCI-H358; first compound 0.1265 µM
  relative viability: 0.149
NCI-H358; first compound 0.4 µM
  relative viability: 0.16
NCI-H358; first compound 1.265 µM
  relative viability: 0.181
NCI-H358; first compound 4 µM
  relative viability: 0.157
NCI-H1792; first compound 0.04 µM
  relative viability: 0.902
NCI-H1792; first compound 0.1265 µM
  relative viability: 0.781
NCI-H1792; first compound 0.4 µM
  relative viability: 0.771
NCI-H1792; first compound 1.265 µM
  relative viability: 0.817
NCI-H1792; first compound 4 µM
  relative viability: 0.699
NCI-H1944; first compound 0.04 µM
  relative viability: 0.544
NCI-H1944; first compound 0.1265 µM
  relative viability: 0.669
NCI-H1944; first compound 0.4 µM
  relative viability: 0.63
NCI-H1944; first compound 1.265 µM
  relative viability: 0.583
NCI-H1944; first compound 4 µM
  relative viability: 0.558
LU99A; first compound 0.04 µM
  relative viability: 0.182
LU99A; first compound 0.1265 µM
  relative viability: 0.162
LU99A; first compound 0.4 µM
  relative viability: 0.17
LU99A; first compound 1.265 µM
  relative viability: 0.189
LU99A; first compound 4 µM
  relative viability: 0.162
NCI-H1975; first compound 0.04 µM
  relative viability: 0.265
NCI-H1975; first compound 0.1265 µM
  relative viability: 0.305
NCI-H1975; first compound 0.4 µM
  relative viability: 0.297
NCI-H1975; first compound 1.265 µM
  relative viability: 0.28
NCI-H1975; first compound 4 µM
  relative viability: 0.286
UMC-11; first compound 0.04 µM
  relative viability: 0.849
UMC-11; first compound 0.1265 µM
  relative viability: 0.808
UMC-11; first compound 0.4 µM
  relative viability: 0.844
UMC-11; first compound 1.265 µM
  relative viability: 0.791
UMC-11; first compound 4 µM
  relative viability: 0.794
NCI-H1755; first compound 0.04 µM
  relative viability: 0.4
NCI-H1755; first compound 0.1265 µM
  relative viability: 0.504
NCI-H1755; first compound 0.4 µM
  relative viability: 0.461
NCI-H1755; first compound 1.265 µM
  relative viability: 0.416
NCI-H1755; first compound 4 µM
  relative viability: 0.38
HOP-62; first compound 0.04 µM
  relative viability: 0.273
HOP-62; first compound 0.1265 µM
  relative viability: 0.336
HOP-62; first compound 0.4 µM
  relative viability: 0.277
HOP-62; first compound 1.265 µM
  relative viability: 0.275
HOP-62; first compound 4 µM
  relative viability: 0.349
NCI-H2342; first compound 0.04 µM
  relative viability: 0.726
NCI-H2342; first compound 0.1265 µM
  relative viability: 0.701
NCI-H2342; first compound 0.4 µM
  relative viability: 0.669
NCI-H2342; first compound 1.265 µM
  relative viability: 0.769
NCI-H2342; first compound 4 µM
  relative viability: 0.773
HCC-366; first compound 0.04 µM
  relative viability: 0.148
HCC-366; first compound 0.1265 µM
  relative viability: 0.133
HCC-366; first compound 0.4 µM
  relative viability: 0.185
HCC-366; first compound 1.265 µM
  relative viability: 0.162
HCC-366; first compound 4 µM
  relative viability: 0.148
LCLC-97TM1; first compound 0.04 µM
  relative viability: 0.2
LCLC-97TM1; first compound 0.1265 µM
  relative viability: 0.177
LCLC-97TM1; first compound 0.4 µM
  relative viability: 0.177
LCLC-97TM1; first compound 1.265 µM
  relative viability: 0.149
LCLC-97TM1; first compound 4 µM
  relative viability: 0.172
A-427; first compound 0.04 µM
  relative viability: 0.98
A-427; first compound 0.1265 µM
  relative viability: 0.957
A-427; first compound 0.4 µM
  relative viability: 0.993
A-427; first compound 4 µM
  relative viability: 0.947
NCI-H1793; first compound 0.04 µM
  relative viability: 0.789
NCI-H1793; first compound 0.1265 µM
  relative viability: 0.817
NCI-H1793; first compound 0.4 µM
  relative viability: 1.06
NCI-H1793; first compound 1.265 µM
  relative viability: 0.747
NCI-H1793; first compound 4 µM
  relative viability: 0.714
NCI-H2170; first compound 0.04 µM
  relative viability: 0.328
NCI-H2170; first compound 0.1265 µM
  relative viability: 0.289
NCI-H2170; first compound 0.4 µM
  relative viability: 0.273
NCI-H2170; first compound 1.265 µM
  relative viability: 0.292
NCI-H2170; first compound 4 µM
  relative viability: 0.261
NCI-H1915; first compound 0.04 µM
  relative viability: 0.505
NCI-H1915; first compound 0.1265 µM
  relative viability: 0.558
NCI-H1915; first compound 0.4 µM
  relative viability: 0.53
NCI-H1915; first compound 1.265 µM
  relative viability: 0.477
NCI-H1915; first compound 4 µM
  relative viability: 0.498
SW 900; first compound 0.04 µM
  relative viability: 0.476
SW 900; first compound 0.1265 µM
  relative viability: 0.471
SW 900; first compound 0.4 µM
  relative viability: 0.467
SW 900; first compound 1.265 µM
  relative viability: 0.478
SW 900; first compound 4 µM
  relative viability: 0.464
LXF-289; first compound 0.04 µM
  relative viability: 0.887
LXF-289; first compound 0.1265 µM
  relative viability: 0.879
LXF-289; first compound 0.4 µM
  relative viability: 0.955
LXF-289; first compound 1.265 µM
  relative viability: 0.908
LXF-289; first compound 4 µM
  relative viability: 0.822
COR-L 105; first compound 0.04 µM
  relative viability: 1.34
COR-L 105; first compound 0.1265 µM
  relative viability: 1.1
COR-L 105; first compound 0.4 µM
  relative viability: 1.2
COR-L 105; first compound 1.265 µM
  relative viability: 1.15
COR-L 105; first compound 4 µM
  relative viability: 1.04
LC-2-ad; first compound 0.04 µM
  relative viability: 0.267
LC-2-ad; first compound 0.1265 µM
  relative viability: 0.27
LC-2-ad; first compound 0.4 µM
  relative viability: 0.275
LC-2-ad; first compound 1.265 µM
  relative viability: 0.267
LC-2-ad; first compound 4 µM
  relative viability: 0.288
SK-LU-1; first compound 0.04 µM
  relative viability: 0.966
SK-LU-1; first compound 0.1265 µM
  relative viability: 0.881
SK-LU-1; first compound 0.4 µM
  relative viability: 1.14
SK-LU-1; first compound 1.265 µM
  relative viability: 0.901
SK-LU-1; first compound 4 µM
  relative viability: 0.928
EPLC-272H; first compound 0.04 µM
  relative viability: 0.349
EPLC-272H; first compound 0.1265 µM
  relative viability: 0.334
EPLC-272H; first compound 0.4 µM
  relative viability: 0.781
EPLC-272H; first compound 1.265 µM
  relative viability: 0.295
EPLC-272H; first compound 4 µM
  relative viability: 0.376
NCI-H2085; first compound 0.04 µM
  relative viability: 0.844
NCI-H2085; first compound 0.1265 µM
  relative viability: 0.842
NCI-H2085; first compound 0.4 µM
  relative viability: 0.976
NCI-H2085; first compound 1.265 µM
  relative viability: 0.892
NCI-H2085; first compound 4 µM
  relative viability: 0.821
